Measured values from US9777034B2, “Modular synthesis of amphiphilic Janus glycodendrimers and their self-assembly into glycodendrimersomes” (The Trustees of The University of Pennsylvania, priority 2013, dated 2017).
“Also recorded” adds a separate entry of the source.

Tests used:
[1] = Cryo-TEM of assemblies formed in water; type: physicochemical
[2] = Self-assembly by injection of THF or ethanol solution into water or buffer, analysed by DLS (size, polydispersity, stability in time); details: for stability of glycodendrimersomes in buffer: PBS and HEPES buffers
Protocol: The resulting assemblies were first analyzed by dynamic light scattering (DLS) for size, polydispersity (PDI), and stability in time. Assemblies stable in time were subsequently analyzed by cryogenic-transmission electron microscopy (cryo-TEM) to determine their structure.
Dynamic light scattering (DLS) was performed with a Malvern Instruments particle sizer (Zetasizer® Nano S, Malvern Instruments, UK) equipped with 4 mW He—Ne laser 633 nm and avalanche photodiode positioned at 175° to the beam and temperature controlled cuvette holder. Instrument parameters were determined automatically along with measurement times. Experiments were performed in triplicate. The Janus-dendrimer (1 mg) dissolved in 100 μL of THF was injected into 2 mL of ultrapure water or buffer followed by 5 seconds of vortex mixing. DLS experiments were measured at 25° C. Different final concentration of dendrimersomes in water was prepared from varying the starting concentration of THF solution with the same injection volume (100 μL) into constant 2.0 mL of ultrapure water or buffer.

[3] = Micropipette aspiration of giant glycodendrimersomes; details: for behaviour in micropipette aspiration: giant vesicles prepared by hydration; for elastic modulus of membrane: average of 11 (52dd) or 13 (51bc) vesicles; for critical area strain: giant vesicles
[4] = system: Viscum album L. agglutinin (VAA)
PA-IL = target: T1, PA-IL (Pseudomonas aeruginosa, UniProt Q05097); assay: Agglutination of glycodendrimersomes with PA-IL; type: binding; details: 10 mM HEPES, 1.0 mM MnCl2 and CaCl2
T1 construct: purchased Sigma-Aldrich
T1 sequence (Q05097 whole entry): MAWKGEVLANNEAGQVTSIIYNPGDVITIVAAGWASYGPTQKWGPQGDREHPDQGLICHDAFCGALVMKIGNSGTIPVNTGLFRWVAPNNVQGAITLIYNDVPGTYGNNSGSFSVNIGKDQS

galectin-4 (Gal-4) = target: T2, galectin-4 (Gal-4) (Homo sapiens, UniProt P56470); assay: Agglutination of glycodendrimersomes with Gal-4; type: binding; details: [52bd]=1.0 mg/mL, [Gal-4]=0-4.0 mg/mL, 10 mM HEPES
T2 construct: made in house
T2 sequence (P56470 1-323): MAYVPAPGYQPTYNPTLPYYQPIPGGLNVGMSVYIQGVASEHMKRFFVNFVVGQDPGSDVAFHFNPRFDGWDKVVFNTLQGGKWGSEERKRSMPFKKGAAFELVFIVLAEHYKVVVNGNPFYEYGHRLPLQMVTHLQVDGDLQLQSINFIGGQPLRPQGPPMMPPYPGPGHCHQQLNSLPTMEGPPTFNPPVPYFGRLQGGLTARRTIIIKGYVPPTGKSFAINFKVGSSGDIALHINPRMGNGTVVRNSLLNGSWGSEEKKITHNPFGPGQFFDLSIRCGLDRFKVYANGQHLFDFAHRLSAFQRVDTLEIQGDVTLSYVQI

galectin-3 (Gal-3) = target: T3, galectin-3 (Gal-3) (Homo sapiens, UniProt P17931); assay: Agglutination of glycodendrimersomes with Gal-3; type: binding; details: [52bd]=1.0 mg/mL, [Gal-3]=0-4.0 mg/mL, 10 mM HEPES
T3 construct: made in house
T3 sequence (P17931 whole entry): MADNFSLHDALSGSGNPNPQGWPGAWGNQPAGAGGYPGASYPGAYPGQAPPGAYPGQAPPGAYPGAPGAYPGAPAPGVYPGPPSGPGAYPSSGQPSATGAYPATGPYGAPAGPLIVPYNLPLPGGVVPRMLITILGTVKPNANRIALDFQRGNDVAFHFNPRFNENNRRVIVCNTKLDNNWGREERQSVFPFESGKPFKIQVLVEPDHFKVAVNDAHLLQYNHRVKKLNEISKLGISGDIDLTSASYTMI

| Substance | structure of assemblies formed in water ([1]; injection into water, cryo-TEM) | other results |
| --- | --- | --- |
| ((3,4)12G-PE-TRZ-(galactose)2 [Compound 46aa] | sheet-like solid lamellae |  |
| (3,5)12G1-PE-TRZi-3EOMan2 [Compound 51bb] | soft vesicles | stability of glycodendrimersomes in buffer [2]: stable in buffer; agglutination with Con A, dependence on glycodendrimersome diameter (concanavalin A (Con A)): smallest glycodendrimersome provides the fastest agglutination; behaviour in micropipette aspiration [3]: fluid unilamellar membrane |
| (3,5)12G1-PE-TRZi-3EOGal2 [Compound 51ba] | soft vesicles | stability of glycodendrimersomes in buffer [2]: stable in buffer; agglutination with VAA [4]: agglutinated; agglutination with PA-IL (PA-IL): agglutination; also recorded: agglutinated |
| (3,4)12G1-PE-spacer-TRZ-(galactose)2 [Compound 50aa] | solid lamellae and solid vesicles | behaviour in micropipette aspiration [3]: cannot be aspirated |
| (3,4)2Ethyl8G1-PE-TRZ-(mannose)2 [Compound 48ab] | dendrimer aggregates |  |
| (3,5)12G1-PE-TRZ-4EOLac2 [Compound 52bd] | glycodendrimersomes | stability of glycodendrimersomes in buffer [2]: stable in buffer; agglutination with Gal-4 (galectin-4 (Gal-4)): agglutination; agglutination with VAA [4]: agglutination effect can be clearly visualized; agglutination with Gal-3 (galectin-3 (Gal-3)): agglutination |
| (3,4)2Et8G1-PE-TRZi-3EOLac2 [Compound 53da] | glycodendrimersomes and solid lamellae; also recorded: soft glycodendrimersomes |  |
| (3,4,5)2Et8G1-PE-TRZi-Man2 [Compound 49ca] | mixtures of soft glycodendrimersomes and dendrimer aggregates; also recorded: formation of dendrimer aggregates is dominant with only few glycodendrimersomes being observed |  |
| (3,4)2Et8G1-PE-TRZ1-Gal2 [Compound 49ac] | only soft glycodendrimersomes |  |
| (3,4,5)12G1-PE-TRZ-(galactose)2 [Compound 46ca] | solid lamellae |  |
| (3,5)2Et8G1-PE-TRZi-3EOGal2 [Compound 49bb] | only soft glycodendrimersomes | precipitation ([2]; 10 mg/mL final concentration in water): does not exhibit any sign of precipitation; stability of glycodendrimersomes in buffer [2]: stable in buffer; average vesicle size ([2]; concentration above 10 mg/mL): of the order of a micrometer; stability of vesicles in water and buffer ([2]; concentrations higher than 10 mg/mL): stable in water and buffer |
| (3,4)2Et8G1-PE-TRZi-3EOGal2 [Compound 49ab] | only soft glycodendrimersomes | stability of glycodendrimersomes in buffer [2]: stable in buffer |
| (3,4)12G1-PE-TRZi-2EOMan2 [Compound 51ac] | solid vesicles |  |
| (3,4,5)12G1-PE-TRZi-3EOLac2 [Compound 53ca] | solid and polygonal glycodendrimersomes; also recorded: solid vesicles and solid lamellae |  |
| (3,4,5)12G1-PE-spacer-TRZ-(1EO-lactose)2 [Compound 52dc] | glycodendrimersomes |  |
| (3,4)12G1-PE-TRZi-3EOGal2 [Compound 51aa] | solid lamellae |  |
| (3,4,5)12G1-PE-spacer-TRZ-(4EO-lactose)2 [Compound 52dd] | glycodendrimersomes | stability of glycodendrimersomes in buffer [2]: stable in buffer; elastic modulus of membrane [3]: 49.6±15 dyne/cm; critical area strain [3]: greater than 20%; behaviour in micropipette aspiration [3]: fluid unilamellar membrane; also recorded: display hysteresis |
| (3,4,5)2Et8G1-PE-TRZi-3EOGal2 [Compound 49cb] | only soft glycodendrimersomes | stability of glycodendrimersomes in buffer [2]: stable in buffer |
| (3,4)12G1-PE-TRZi-3EOMan2 [Compound 51ab] | solid vesicles |  |
| (3,4)12G1-PE-spacer-TRZ-(mannose)2 [Compound 50ab] | solid lamellae and solid vesicles |  |
| (3,4,5)12G1-PE-spacer-TRZ-(galactose)2 [Compound 50ca] | mixture of tubular and spherical glycodendrimersomes; also recorded: mixtures of tubular and soft spherical glycodendrimersomes and also bundles of tubular dendrimersomes |  |
| (3,5)2Et8G1-PE-TRZi-Man2 [Compound 49ba] | mixtures of soft glycodendrimersomes and dendrimer aggregates; also recorded: coexistence of thick-wall glycodendrimersomes and large dendrimer aggregates |  |

| Substance | structure of assemblies formed in water ([1]; injection into water, cryo-TEM) | other results |
| --- | --- | --- |
| (3,5)12G1-PE-spacer-TRZ-(galactose)2 [Compound 50ba] | dendrimer aggregates |  |
| (3,4,5)2Et8G1-PE-TRZi-3EOLac2 [Compound 53fa] | soft glycodendrimersomes | stability of glycodendrimersomes in buffer [2]: stable in buffer |
| (3,4)12G1-PE-TRZi-3EOLac2 [Compound 53aa] | combination of soft glycodendrimersomes and rod-like micelles |  |
| (3,4)12G1-PE-TRZ-4EOLac2 [Compound 52ad] | mixture of soft vesicles and bundles of rod-like micelles |  |
| (3,4)2Et8G1-PE-TRZi-Man2 [Compound 49aa] | only soft glycodendrimersomes |  |
| (3,4,5)12G1-PE-TRZi-3EOMan2 [Compound 51cb] | solid lamellae | morphological change on annealing ([1]; 0.5 mg/mL in water, annealing at 60° C. for 30 min): transition from solid lamellae to solid vesicles |
| (3,5)2Et8G1-PE-TRZi-Gal2 [Compound 49bc] | mixtures of dendrimer aggregates and cubosomes |  |
| (3,4)12G1-PE-TRZ-(mannose)2 [Compound 46ab] | sheet-like solid lamellae |  |
| (3,5)12G1-PE-TRZi-3EOLac2 [Compound 53ba] | soft glycodendrimersomes | stability of glycodendrimersomes in buffer [2]: stable in buffer |
| (3,4,5)12G1-PE-spacer-TRZ-(mannose)2 [Compound 50cb] | tubular glycodendrimersome bundles; also recorded: mixtures of tubular and soft spherical glycodendrimersomes and also bundles of tubular dendrimersomes |  |
| (3,4,5)12G1-PE-TRZ-(mannose)2 [Compound 46cb] | mixture of morphologies | structure of assemblies formed in water ([1]; concentrations higher than 0.5 mg/mL): polygonal glycodendrimersome; structure of assemblies formed in water ([1]; concentrations smaller than 0.5 mg/mL): nano-tubular morphology is dominant |
| (3,5)12G1-PE-spacer-TRZ-(mannose)2 [Compound 50bb] | dendrimer aggregates |  |
| (3,4,5)12G1-PE-TRZi-1EOMan2 [Compound 51cd] | solid lamellae |  |
| (3,4,5)2Et8G1-PE-TRZi-Gal2 [Compound 49cc] | dendrimer aggregates |  |
| (3,5)12G1-PE-TRZi-2EOMan2 [Compound 51bc] | soft vesicles | elastic modulus of membrane [3]: 163±30 dyne/cm; critical area strain [3]: 5-10%; behaviour in micropipette aspiration [3]: fluid unilamellar membrane |
| (3,4,5)12G1-PE-TRZi-3EOGal2 [Compound 51ca] | solid lamellae |  |
| (3,4)2Ethyl8G1-PE-TRZ-(galactose)2 [Compound 48aa] | dendrimer aggregates |  |
| (3,5)2Et8G1-PE-TRZi-3EOLac2 [Compound 53ea] | soft glycodendrimersomes | stability of glycodendrimersomes in buffer [2]: stable in buffer |
| (3,4)12G1-PE-TRZi-Man2 [Compound 47ab] | solid glycodendrimersomes |  |
| (3,5)12G1-PE-TRZi-1EOMan2 [Compound 51bd] | cubosomes | symmetry of glycodendrimercubosome ([1]; 1.0 mg/mL, Fourier transform of cryo-TEM): Pn3m cubic symmetry |
| (3,4,5)12G1-PE-TRZi-2EOMan2 [Compound 51cc] | solid lamellae |  |
| (3,4)12G1-PE-TRZ-1EOMan2 [Compound 51ad] | solid vesicles | behaviour in micropipette aspiration [3]: cannot be aspirated |
